Results published in ChEMBL document CHEMBL4819087, “Identification and optimization of 3-bromo-N'-(4-hydroxybenzylidene)-4-methylbenzohydrazide derivatives as mTOR inhibitors that induce autophagic cell death and apoptosis in triple-negative breast cancer” (Eur J Med Chem, 2021).
pIC50: −log10 of the molar value.

Key:
[1] = target: Serine/threonine-protein kinase mTOR (Homo sapiens, UniProt P42345); experiment: Inhibition of mTOR (unknown origin)
[2] = system: MDA-MB-468; experiment: cells; details: Homo sapiens, MDA-MB-468, 24 h
Description: Antiproliferative activity against human MDA-MB-468 cells assessed as reduction in cell viability incubated for 24 hrs by MTT assay

[3] = system: MDA-MB-231; experiment: Induction of autophagy in human MDA-MB-231 cells assessed as MDC positive ratio at 1 uM incubated for 6 hrs by MDC staining based flow cytometry analysis; assay type: functional
[4] = system: MDA-MB-231; experiment: cells; details: Homo sapiens, MDA-MB-231, 24 h
Description: Antiproliferative activity against human MDA-MB-231 cells assessed as reduction in cell viability incubated for 24 hrs by MTT assay

[5] = system: A549; experiment: cells; details: Homo sapiens, A549, 24 h
Description: Antiproliferative activity against human A549 cells assessed as reduction in cell viability incubated for 24 hrs by MTT assay

Row | SMILES | pIC50 [1] | pIC50 [2] | Activity [3] | pIC50 [4] | pIC50 [5]
1 | C/C(=N\NC(=O)c1cccc(Br)c1)c1ccc(C(=O)O)cc1 | 6.16 | 5.26 | 19.83% | 5.12 | 5.11
2 | CC(NC(=O)Nc1cccc(Cl)c1)c1ccccc1 (centres undefined) | < 4.52 | 4.63 | 9.25% | 4.65 | 4.61
3 | CO[C@H]1C[C@@H]2CC[C@@H](C)[C@@](O)(O2)C(=O)C(=O)N2CCCC[C@H]2C(=O)O[C@H]([C@H](C)C[C@@H]2CC[C@@H](OC(=O)C(C)(CO)CO)[C@H](OC)C2)CC(=O)[C@H](C)/C=C(\C)[C@@H](O)[C@@H](OC)C(=O)[C@H](C)C[C@H](C)/C=C/C=C/C=C/1C [TEMSIROLIMUS] | 5.64 | 4.96 | 15.33% | 4.76 | 4.93
4 | C/C(=N\NC(=O)c1cccc(F)c1)c1ccc(C(=O)Nc2nc3ccccc3[nH]2)cc1 | 6.08 | 5.22 | 22.34% | 5.30 | 5.11
5 | O=C(NCc1ccc(O)cc1)Nc1cccc(F)c1 | < 4.52 | 4.47 | 8.31% | 4.56 | 4.65
6 | O=C(NCc1cccc(Br)c1)Nc1ccc(C(F)(F)F)cc1 | 4.80 | 4.61 | 9.1% | 4.68 | 4.58
7 | CC(NC(=O)Nc1cccc(F)c1)c1ccccc1 (centres undefined) | 4.77 | 4.50 | 8.29% | 4.47 | 4.48
8 | C/C(=N\NC(=O)c1ccc(C)c(Br)c1)c1ccc(C(F)(F)F)cc1 | 5.32 | 5.00 | 18.65% | 5.03 | 5.04
9 | O=C(Nc1ccc(C(F)(F)F)cc1)Nc1cccc(F)c1 | 4.90 | 4.92 | 7.22% | 4.99 | 4.94
10 | Cc1ccc(C(=O)Nc2cc3ccccc3cn2)cc1Br | 4.82 | 4.59 | 11.8% | 4.49 | 4.58
11 | O=C(NCc1ccc(O)cc1)Nc1ccc(C(F)(F)F)cc1 | 4.99 | 4.76 | 8.29% | 4.64 | 4.44
12 | C/C(=N\NC(=O)c1ccc(C)c(Br)c1)c1ccc(N)cc1 | 5.14 | 4.92 | 18.9% | 5.00 | 4.87
13 | C/C(=N\NC(=O)c1cccc(I)c1)c1ccc(N)cc1 | 5.32 | 5.08 | 15.27% | 4.88 | 4.88
14 | C/C(=N\NC(=O)c1cccc(I)c1)c1ccc(C(=O)O)cc1 | 6.09 | 5.20 | 17.2% | 5.05 | 5.05
15 | CN(Cc1ccccc1)C(=O)Nc1ccc(C(F)(F)F)cc1 | 4.99 | 4.66 | 7.34% | 4.67 | 4.54
16 | O=C(Nc1nc2ccccc2[nH]1)c1ccc(OC(F)(F)F)cc1 | 5.40 | 4.62 | 11.22% | 4.54 | 4.56
17 | CO[C@H]1C[C@@H]2CC[C@@H](C)[C@@](O)(O2)C(=O)C(=O)N2CCCC[C@H]2C(=O)O[C@H]([C@H](C)C[C@@H]2CC[C@@H](O)[C@H](OC)C2)CC(=O)[C@H](C)/C=C(\C)[C@@H](O)[C@@H](OC)C(=O)[C@H](C)C[C@H](C)/C=C/C=C/C=C/1C [SIROLIMUS] |  | 4.43 | 31.03% | 4.45 | 4.51
18 | C/C(=N\NC(=O)c1ccc(C)c(F)c1)c1ccc(C(=O)Nc2cc(N3CCOCC3)ccn2)cc1 | 5.42 | 4.92 | 19.22% | 4.88 | 4.86
19 | Cc1ccc(C(=O)Nc2ccc3ccccc3n2)cc1Br | 4.75 | 4.56 | 13.81% | 4.42 | 4.50
20 | C/C(=N\NC(=O)c1cccc(Br)c1)c1ccc(C(=O)Nc2cc[nH]n2)cc1 | 5.89 | 5.08 | 19.78% | 5.03 | 4.98

Row | SMILES | pIC50 [1] | pIC50 [2] | Activity [3] | pIC50 [4] | pIC50 [5]
21 | C/C(=N\NC(=O)c1ccc(C)c(I)c1)c1ccc(C(F)(F)F)cc1 | 5.70 | 5.06 | 14.89% | 5.08 | 5.02
22 | C/C(=N\NC(=O)c1cccc(F)c1)c1ccc(O)cc1O | 5.37 | 5.03 | 15.04% | 4.97 | 4.81
23 | C/C(=N\NC(=O)c1ccc(C)c(I)c1)c1ccncc1 | 5.78 | 4.99 | 16.25% | 5.04 | 4.95
24 | C/C(=N\NC(=O)c1ccc(C)c(F)c1)c1ccc(N)cc1 | 5.36 | 5.02 | 15.44% | 5.08 | 4.92
25 | C/C(=N\NC(=O)c1ccc(C)c(Br)c1)c1ccc(O)cc1 | 5.70 | 5.07 | 19.27% | 5.17 | 5.00
26 | O=C(NCc1cc(C(F)(F)F)cc(C(F)(F)F)c1)Nc1ccc(C(F)(F)F)cc1 | 4.69 | 4.75 | 9.62% | 4.77 | 4.87
27 | C/C(=N\NC(=O)c1ccc(C)c(Br)c1)c1ccncc1 | 5.28 | 5.06 | 15.26% | 4.96 | 4.91
28 | O=C(NCc1ccc(O)cc1)Nc1cccc(Cl)c1 | 4.57 | 4.59 | 9.22% | 4.71 | 4.51
29 | C/C(=N\NC(=O)c1cccc(Br)c1)c1ccc(C(=O)Nc2cc(N3CCOCC3)ccn2)cc1 | 5.61 | 4.99 | 20.99% | 5.04 | 4.86
30 | C/C(=N\NC(=O)c1cccc(Br)c1)c1ccc(N)cc1 | 5.21 | 4.88 | 15.81% | 4.96 | 4.88
31 | C/C(=N\NC(=O)c1cccc(Br)c1)c1ccc(C(=O)NN2CCOCC2)cc1 | 5.32 | 5.09 | 17.2% | 5.09 | 4.95
32 | O=C(Nc1cccc(F)c1)Nc1nc2ccccc2[nH]1 | 5.31 | 4.62 | 8.32% | 4.72 | 4.70
33 | C/C(=N\NC(=O)c1ccc(C)c(I)c1)c1ccc(N)cc1 | 5.29 | 5.02 | 14.28% | 5.07 | 5.00
34 | C/C(=N\NC(=O)c1cccc(Br)c1)c1cc(O)cc(O)c1 | 5.09 | 4.96 | 16.33% | 5.04 | 4.99
35 | Cc1ccc(C(=O)NCCc2ccc(O)cc2)cc1Br | < 4.52 | 4.47 | 11.23% | 4.38 | 4.47
36 | C/C(=N\NC(=O)c1cccc(I)c1)c1ccncc1 | 5.93 | 4.92 | 15.79% | 4.90 | 5.01
37 | Cc1ccc(C(=O)NCc2ccc(O)cc2)cc1Br | < 4.52 | 4.38 | 12.73% | 4.48 | 4.47
38 | O=C(Nc1ccc(C(F)(F)F)cc1)Nc1nc2ccccc2[nH]1 | 4.63 | 4.63 | 8.2% | 4.64 | 4.63
39 | O=C(NCc1cc(C(F)(F)F)cc(C(F)(F)F)c1)Nc1cccc(F)c1 | 4.75 | 4.76 | 8.77% | 4.86 | 4.90
